Key:
[1] = target: T1, Mineralcorticoidal receptor of kidneys of the rat (Rattus norvegicus, UniProt P22199); test: Mineralcorticoidal receptor binding (displacement of tritiated aldosterone)
T1 construct: from tissue; host or cells: rat kidney, 105,000 g supernatant (adrenalectomized male Sprague-Dawley rats)
T1 sequence (P22199 1-981): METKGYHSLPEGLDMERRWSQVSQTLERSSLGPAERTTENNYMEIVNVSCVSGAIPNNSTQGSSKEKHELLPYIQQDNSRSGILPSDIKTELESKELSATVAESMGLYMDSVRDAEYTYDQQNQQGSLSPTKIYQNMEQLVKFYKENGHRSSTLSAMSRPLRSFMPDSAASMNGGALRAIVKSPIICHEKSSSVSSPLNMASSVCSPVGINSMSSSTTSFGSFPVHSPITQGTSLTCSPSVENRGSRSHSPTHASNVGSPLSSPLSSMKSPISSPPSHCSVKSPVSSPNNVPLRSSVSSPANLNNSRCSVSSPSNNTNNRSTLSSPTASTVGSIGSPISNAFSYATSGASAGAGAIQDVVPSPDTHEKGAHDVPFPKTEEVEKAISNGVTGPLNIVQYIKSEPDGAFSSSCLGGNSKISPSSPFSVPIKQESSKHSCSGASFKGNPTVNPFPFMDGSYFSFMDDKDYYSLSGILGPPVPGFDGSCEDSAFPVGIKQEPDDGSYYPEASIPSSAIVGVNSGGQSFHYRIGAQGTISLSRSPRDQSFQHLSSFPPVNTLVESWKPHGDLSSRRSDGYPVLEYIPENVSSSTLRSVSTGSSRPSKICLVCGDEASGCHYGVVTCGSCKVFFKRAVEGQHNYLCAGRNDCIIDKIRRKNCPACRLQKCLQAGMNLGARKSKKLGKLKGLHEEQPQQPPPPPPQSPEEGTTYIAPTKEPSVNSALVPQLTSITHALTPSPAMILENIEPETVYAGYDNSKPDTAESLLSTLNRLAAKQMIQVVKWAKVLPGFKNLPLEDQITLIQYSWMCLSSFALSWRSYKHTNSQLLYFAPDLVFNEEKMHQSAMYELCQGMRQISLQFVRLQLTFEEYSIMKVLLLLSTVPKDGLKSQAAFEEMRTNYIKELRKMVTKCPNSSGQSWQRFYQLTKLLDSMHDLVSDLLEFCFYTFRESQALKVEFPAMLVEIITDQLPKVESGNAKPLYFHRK
Procedure: A. Mineralcorticoidal receptor of kidneys of the rat
Male Sprague-Dawley EOPS rats weighing 140 to 160 g surrenalectomized 4 to 8 days previously were killed and their kidneys were perfused in situ with 50 ml of a buffer (10 mM of Tris 0.25M of Saccharose and sufficient hydrochloric acid for a pH of 7.4). The kidneys were then removed, decapsulated and homogenized at 0° C. with a polytetrafluoroethylene-glass Potter (1 g of tissue per 3 ml of buffer). The homogenate was centrifuged for 10 minutes at 800 g at 9° C.
After elimination of the fixation of tritiated aldosterone with glucocorticoid receptor, 21-methyl-Δ^1,4,6 -pregnatriene-20-yne-11β,17β-diol-3-one fixed only with the glucocorticoid receptor was added to the supernatant at a final concentration of 10^-6 M. The suprenatant was ultracentrifuged at 105,000 g for 60 minutes and 0° C. and aliquoits of the resulting surnageant were incubated at 0° C. with a constant concentration (T) of tritiated aldosterone in the presence of increasing concentrations (0-2500×10^-9 M) of cold aldosterone or the cold test product. After a time (t) of incubation, the concentration of tied tritiated aldosterone (B) was measured by the technique of adsoprtion on carbon dextran.
(§1) The calculation of the relative affinity of […] (ARL) was identical for all of the above receptor tests. One traced the following two curves: the percentage of tied tritiated hormone B/T as a function of the logarithm of the cold hormone concentration and B/T as a function of the logarithm of the concentration of the cold test product. One determined the line of the equation. [formula]
(§2) The intersection of the I50 line and the curves permits one to determine the concentrations of the cold hormone of the reference (CH) and the cold test compound (CX) which inhibit by 50% the tieing of tritiated hormone with the receptor. The relative affinity of tieing (ARL) of the test product was determined by the equation: [formula]

[2] = target: T2, Estrogen receptor of uterus of mice (Mus musculus, UniProt P19785); test: Estrogen receptor binding (displacement of tritiated estradiol)
T2 construct: the uterus were removed and homogenized at 0° C; from tissue; host or cells: mouse uterus, 105,000 g supernatant (immature females 18 to 21 days old)
T2 sequence (P19785 1-599): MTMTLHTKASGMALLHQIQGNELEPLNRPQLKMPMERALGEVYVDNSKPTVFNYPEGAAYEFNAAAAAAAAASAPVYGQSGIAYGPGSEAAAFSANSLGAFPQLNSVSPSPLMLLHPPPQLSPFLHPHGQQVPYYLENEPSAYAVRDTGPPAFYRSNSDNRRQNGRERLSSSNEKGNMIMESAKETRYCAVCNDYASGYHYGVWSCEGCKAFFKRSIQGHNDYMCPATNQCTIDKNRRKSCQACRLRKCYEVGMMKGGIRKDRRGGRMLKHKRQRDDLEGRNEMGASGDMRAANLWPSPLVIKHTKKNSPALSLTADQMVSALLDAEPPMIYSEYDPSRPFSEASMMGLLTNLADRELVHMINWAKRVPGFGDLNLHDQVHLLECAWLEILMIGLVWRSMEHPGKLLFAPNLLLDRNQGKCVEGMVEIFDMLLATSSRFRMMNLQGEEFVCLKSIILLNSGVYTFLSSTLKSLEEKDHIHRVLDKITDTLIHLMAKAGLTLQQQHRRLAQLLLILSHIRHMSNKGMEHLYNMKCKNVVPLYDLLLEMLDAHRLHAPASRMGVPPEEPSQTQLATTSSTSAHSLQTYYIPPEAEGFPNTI
Procedure: E. Estrogen receptor of uterus of mice
Immature female mice 18 to 21 days old were killed and the uterus were removed and homogenized at 0° C. with a polytetrafluoroethylene-glass Potter in a buffered TS solution consisting of 10 mM, Tris, 0125M Saccharose, HCl for a pH of 7.4 at a rate of 1 g of tissue per 25 ml of TS. The homogenate was then ultracentrigued at 105,000 g for 90 minutes at 0° C. and aliquoits of the resulting […] were incubated at 0° C. for a time (t) with a constant concentration (T) of tritiated estradiol in the presence of increasing concentrations (0 to 1000×10^-9 M) of either cold estradiol or cold test compound. The concentration of tied tritiated estradiol (B) was measured for each incubate by the technique of adsorption on carbon-dextran.
as §1, §2

[3] = second table, incubation 24 H at 0° C.
[4] = second table, incubation 2 H at 0° C.

Row | relative affinity of tieing (ARL), Mineralocorticoid [1, 3] | relative affinity of tieing (ARL), Estrogen [2, 4] | relative affinity of tieing (ARL), Mineralocorticoid ([1]; incubation 1 H at 0° C.) | relative affinity of tieing (ARL), Mineralocorticoid ([1]; incubation 24 H at 0° C.) | relative affinity of tieing (ARL), Estrogen ([2]; incubation 2 H at 0° C.) | relative affinity of tieing (ARL), Estrogen ([2]; incubation 5 H (25° C.)) | Compound
1 | 0 | 0 |  |  |  |  | C[C@]12C[C@H](c3ccc([N+](C)(C)[O-])cc3)C3=C4CCC(=O)C=C4CC[C@H]3[C@@H]1CC[C@@]2(O)C#CCl [Example 26, N-oxide of 11β-[4-(N,N-dimethylamino)-phenyl]-21-chloro-19-nor-17α-Δ^4,9-pregnadiene-20-yne-17β-ol-3-one]
2 | 0 | 0 |  |  |  |  | C=C(C)C#C[C@]1(O)CC[C@H]2[C@@H]3CCC4=CC(=O)CCC4=C3[C@@H](c3ccc(N(C)C)cc3)C[C@@]21C [Example 23, 11β-[4-(N,N-dimethylamino)-phenyl]-23-methyl-19,21-dinor-17α-Δ^4,9,23-cholatriene-20-yn-17β-ol-3-one]
3 | 0,8 | 0 |  |  |  |  | C#C[C@@]1(O)CC[C@H]2[C@@H]3CCC4=CC(=O)CCC4=C3[C@@H](c3ccc(N(C)C)cc3)C[C@@]21C [Example 21, 11β-[4-(N,N-dimethylamino)-phenyl]-17β-ethynyl-Δ^4,9-estradiene-17α-ol-3-one]
4 | 0 | 0 |  |  |  |  | CN(C)c1ccc([C@H]2C[C@@]3(C)[C@@H](CC[C@@]3(O)C#CCl)[C@@H]3CCC4=CC(=O)CCC4=C32)cc1 [Example 25, 11β-[4-(N,N-dimethylamino)-phenyl]-21-chloro-19-nor-17α-Δ^4,9-pregnadiene-20-yne-17β-ol-3-one]
5 |  | 0 |  |  |  |  | CC#C[C@]1(O)CC[C@H]2[C@@H]3CCC4=CC(=O)CCC4=C3[C@@H](c3ccc([N+](C)(C)[O-])cc3)C[C@@]21C [Example 35, N-oxide of 11β-[4-(N,N-dimethylamino)-phenyl]-17α-(prop-1-ynyl)-Δ^4,9-estradiene-17β-ol-3-one]
6 |  |  | < 0,1 | < 0,1 | < 0,1 | < 0,1 | CC#C[C@]1(O)CC[C@H]2[C@@H]3CCC4=CC(=O)C(C#N)(C#N)CC4=C3[C@@H](c3ccc(N(C)C)cc3)C[C@@]21C [Example 9, 2,2-dicyano-11β-(4-dimethylaminophenyl)-17α-(prop-1-ynyl)-Δ^4,9-estradiene-17β-ol-3-one]
7 |  |  | < 0,1 | < 0,1 | < 0,1 | < 0,1 | CC#C[C@]1(O)CC[C@H]2[C@@H]3CCC4=CC(=O)C(C)(C)CC4=C3[C@@H](c3ccc(N(C)C)cc3)C[C@@]21C [Example 1, 2,2-dimethyl-11β-(4-dimethylaminophenyl)-17α-(prop-1-ynyl)-Δ^4,9-estradiene-17β-ol-3-one]
8 |  |  | < 0,1 | < 0,1 | < 0,1 | < 0,1 | CC#C[C@]1(O)CC[C@H]2[C@@H]3CCC4=CC(=O)[C@H](C)CC4=C3[C@@H](c3ccc(N(C)C)cc3)C[C@@]21C [5 (2α), 2α-methyl-11β-(4-dimethylaminophenyl)-17α-(prop-1-ynyl)-Δ^4,9-estradiene-17β-ol-3-one]
9 |  | 0 |  |  |  |  | CN(C)c1ccc([C@H]2C[C@@]3(C)[C@@H](CC[C@@]3(O)C#Cc3ccccc3)[C@@H]3CCC4=CC(=O)CCC4=C32)cc1 [Example 29, 11β-[4-(N,N-dimethylamino)-phenyl]-21-phenyl-19-nor-17α-Δ^4,9-pregnadiene-20-yne-17β-ol-3-one]

Row | Compound | relative affinity of tieing (ARL), Mineralocorticoid [1, 3] | relative affinity of tieing (ARL), Estrogen [2, 4] | relative affinity of tieing (ARL), Mineralocorticoid ([1]; incubation 1 H at 0° C.) | relative affinity of tieing (ARL), Mineralocorticoid ([1]; incubation 24 H at 0° C.) | relative affinity of tieing (ARL), Estrogen ([2]; incubation 2 H at 0° C.) | relative affinity of tieing (ARL), Estrogen ([2]; incubation 5 H (25° C.))
10 | C=CC[C@]1(O)CC[C@H]2[C@@H]3CCC4=CC(=O)CCC4=C3[C@@H](c3ccc(N(C)C)cc3)C[C@@]21C [Example 37, 11β-[4-(N,N-dimethylamino)-phenyl]-17α-(prop-2-enyl)-Δ^4,9-estradien-17β-ol-3-one] | 0,3 | 0 |  |  |  | 
11 | CN(C)c1ccc([C@H]2C[C@@]3(C)[C@@H](CC[C@@]3(O)C#C[Si](C)(C)C)[C@@H]3CCC4=CC(=O)CCC4=C32)cc1 [Example 44, 11β-[4-(N,N-dimethylamino)-phenyl]-21-trimethylsilyl-19-nor-17α-Δ^4,9-pregnadiene-20-yne-17β-ol-3-one] | 0 | 0 |  |  |  | 
12 | CC#C[C@]1(OC(C)=O)CC[C@H]2[C@@H]3CCc4cc(O)ccc4[C@H]3[C@@H](c3ccc(N(C)C)cc3)C[C@@]21C [2 (17 OAc), 11β-(4-dimethylaminophenyl)-17α-(prop-1-ynyl)-17β-acetoxy-Δ^1,3,5(10) -estratriene-3-ol] |  |  | < 0,1 | < 0,1 | < 0,1 | 0,1
13 | C[C@]12C[C@H](c3ccc([N+](C)(C)[O-])cc3)[C@]34O[C@]35CCC(=O)C=C5CC[C@H]4[C@@H]1CC[C@@]2(O)C#CCl [Example 27, N-oxide of 11β-[4-(N,N-dimethylamino)-phenyl]-9α,10α-epoxy-21-chloro-19-nor-17α-Δ^4-pregnene-20-yne-17β-ol-3-one] | 0 | 0 |  |  |  | 
14 | CC#C[C@]1(O)CC[C@H]2[C@@H]3CCC4=C(CCC(=O)C4)[C@H]3[C@@H](c3ccc(N(C)C)cc3)C[C@@]21C [Example 10, 11β-(4-dimethylaminophenyl)-17α-(prop-1-ynyl)-Δ^5(10) -estrene-17β-ol-3-one] |  |  | 1,5 | < 0,1 | < 0,1 | < 0,1
